melting point [°C]	Compound
147 to 148	Clc1ccccc1CSc1nc(-c2ccc(Br)cc2)cc(-c2ccc(Br)cc2)n1 [Compound 6a, 4,6-Bis(4-bromophenyl)-2-((2-chlorobenzyl)thio)pyrimidine]
176 to 178	Clc1ccc(CSc2nc(-c3ccc(Br)cc3)cc(-c3ccc(Br)cc3)n2)cc1 [Compound 6b, 4,6-Bis(4-bromophenyl)-2-((4-chlorobenzyl)thio)pyrimidine]
149 to 150	Fc1ccccc1CSc1nc(-c2ccc(Br)cc2)cc(-c2ccc(Br)cc2)n1 [Compound 6d, 4,6-Bis(4-bromophenyl)-2-((2-fluorobenzyl)thio)pyrimidine]
107 to 110	Cc1ccc(-c2cc(-c3cccc(Br)c3)nc(SCc3ccccc3Cl)n2)cc1 [Compound 6f, 4-(3-Bromophenyl)-2-((2-chlorobenzyl)thio)-6-(p-tolyl)pyrimidine]
100 to 104	Cc1ccc(-c2cc(-c3cccc(Br)c3)nc(SCc3ccccc3F)n2)cc1 [Compound 6i, 4-(3-Bromophenyl)-2-((2-fluorobenzyl)thio)-6-(p-tolyl)pyrimidine]
123 to 126	Cc1ccc(-c2cc(-c3ccc(Br)cc3)nc(SCc3ccccc3Br)n2)cc1 [Compound 6k, 2-((2-Bromobenzyl)thio)-4-(4-bromophenyl)-6-(p-tolyl)pyrimidine]
115 to 124	Cc1ccc(-c2cc(-c3ccc(Br)cc3)nc(SCc3ccc(F)cc3)n2)cc1 [Compound 6l, 4-(4-Bromophenyl)-2-((4-fluorobenzyl)thio)-6-(p-tolyl)pyrimidine]
124 to 127	Cc1ccc(-c2cc(-c3ccc(Br)cc3)nc(SCc3ccccc3F)n2)cc1 [Compound 6m, 4-(4-Bromophenyl)-2-((2-fluorobenzyl)thio)-6-(p-tolyl)pyrimidine]
106 to 109	Cc1ccc(-c2cc(-c3ccc(Br)cc3)nc(SCc3cccc(F)c3)n2)cc1 [Compound 6n, 4-(4-Bromophenyl)-2-((3-fluorobenzyl)thio)-6-(p-tolyl)pyrimidine]
129 to 130	Cc1ccc(-c2cc(-c3ccc(Br)cc3)nc(SCc3ccccc3)n2)cc1 [Compound 6o, 2-(Benzylthio)-4-(4-bromophenyl)-6-(p-tolyl)pyrimidine]
135 to 138	Cc1ccc(-c2cc(-c3cccc(Br)c3)nc(SCc3ccc(Br)cc3)n2)cc1 [Compound 6r, 2-((4-Bromobenzyl)thio)-4-(3-bromophenyl)-6-(p-tolyl)pyrimidine]
129 to 132	Clc1ccccc1CSc1nc(-c2ccc(Br)cc2)cc(-c2cccc(Br)c2)n1 [Compound 6s, 4-(3-Bromophenyl)-6-(4-bromophenyl)-2-((2-chlorobenzyl)thio)pyrimidine]
94 to 96	Fc1cccc(CSc2nc(-c3ccc(Br)cc3)cc(-c3cccc(Br)c3)n2)c1 [Compound 6t, 4-(3-Bromophenyl)-6-(4-bromophenyl)-2-((3-fluorobenzyl)thio)pyrimidine]

From PMC6150375, “Synthesis, Biological Evaluation and Molecular Docking Study of 2-Substituted-4,6-Diarylpyrimidines as α-Glucosidase Inhibitors” (Molecules : A Journal of Synthetic Chemistry and Natural …, 2017)
